Results reported in patent US20210251972A1, “Methods Of Treating Fabry Disease” (Amicus Therapeutics, Inc., priority 2020, published 2021).

Tested on: ERT-experienced patients with Fabry disease and migalastat-amenable GLA variants
Test: Composite clinical outcomes (CCOs) in ATTRACT (AT1001-012) and open-label extension studies AT1001-041/AT1001-042, Phase 3
Format: in vivo, human
Conditions: for Incidence rate of composite clinical outcomes (CCOs): all patients; for Median time to first CCO: overall
Text: Patients initiated ERT ≥12 months prior to the study.
AT1001-041 (NCT01458119) was a long-term OLE study evaluating the long-term safety and efficacy of migalastat in patients completing a previous migalastat study.
AT1001-042 (NCT02194985) is an ongoing, long-term OLE study evaluating the long-term safety and efficacy of migalastat in patients who participated in AT1001-012 or AT1001-041.
CCOs were defined prior to the planned analysis and included: • Renal events (a decrease in eGFRCKD-EPI≥15 mL/min/1.73 m^2, with the decreased eGFR<90 mL/min/1.73 m^2 relative to baseline; or an increase in 24-hour urine protein≥33%, with elevated protein≥300 mg relative to baseline) • Cardiac events (myocardial infarction; unstable cardiac angina; new symptomatic arrhythmia requiring antiarrhythmic medication, direct current cardioversion, pacemaker, or defibrillator implantation; congestive heart failure [New York Association Class III or IV]) • Cerebrovascular events (stroke or transient ischemic attack) • Death
Exposure to migalastat was calculated from the day of the first dose to the last available data point or the date of discontinuation; for this analysis, the exposure to ERT comprised the duration of participation in the ATTRACT study, and lasted up to 18 months.
Incidence rates were calculated for renal, cerebrovascular, and cardiac events separately and for the composite clinical outcomes. All individual events were accounted for when calculating incidence. Median times to the first clinical event were calculated based on the same data used for the incidence rates.
A direct comparison between migalastat and ERT was based on the 18 months exposure (the ERT data were from first 18 months in ATTRACT only); in addition, the incidence of CCOs for the whole follow-up period was calculated for migalastat (ATTRACT and subsequent OLE studies)
The long-term incidence for migalastat was calculated based on all available data for migalastat.

`Cl.OC[C@H]1NC[C@H](O)[C@@H](O)[C@H]1O` [Migalastat, (2R,3S,4R,5S)-2-(hydroxymethyl) piperdine-3,4,5-triol] was tested, and the “Incidence rate of composite clinical outcomes (CCOs)” value (from here on “Incidence rate … (CCOs)”) (first 18 months of treatment) was 0.41 per patient·year, the “Incidence rate … (CCOs)” value (long-term follow-up, at the data cutoff (median 4.8 years)) was 0.45 per patient·year and the “Median time to first composite clinical outcome” value (females, 0-4.8 years) was 1.15 Years. For the same molecule, the “Incidence rate, cardiac event” value (females, at 4.8 years) was 0.02 per patient·year, the “Incidence rate, cerebrovascular event” value (females, at 4.8 years) was 0.02 per patient·year and the “Incidence rate, death” value (females, at 4.8 years) was 0 per patient·year. The “Incidence rate, renal event” value (females, at 4.8 years) was 0.33 per patient·year, the “Incidence rate, composite clinical outcome” value (females, at 4.8 years (data cutoff)) was 0.37 per patient·year and the “Incidence rate, cardiac event” value (females, at 18 months) was 0.05 per patient·year. The “Incidence rate, cerebrovascular event” value (females, at 18 months) was 0 per patient·year, the “Incidence rate, composite clinical outcome” value (females, at 18 months) was 0.34 per patient·year and the “Incidence rate, death” value (females, at 18 months) was 0 per patient·year. For the same molecule, the “Incidence rate, renal event” value (females, at 18 months) was 0.29 per patient·year, the “Median time to first composite clinical outcome” value (males, 0-4.8 years) was 1.30 Years and the “Incidence rate, cardiac event” value (males, at 4.8 years) was 0.04 per patient·year. For the same molecule, the “Incidence rate, cerebrovascular event” value (males, at 4.8 years) was 0.01 per patient·year, the “Incidence rate, death” value (males, at 4.8 years) was 0 per patient·year and the “Incidence rate, renal event” value (males, at 4.8 years) was 0.51 per patient·year. For the same molecule, the “Incidence rate, composite clinical outcome” value (males, at 4.8 years (data cutoff)) was 0.56 per patient·year, the “Incidence rate, cardiac event” value (males, at 18 months) was 0.07 per patient·year and the “Incidence rate, cerebrovascular event” value (males, at 18 months) was 0 per patient·year. The “Incidence rate, composite clinical outcome” value (males, at 18 months) was 0.50 per patient·year, the “Incidence rate, death” value (males, at 18 months) was 0 per patient·year and the “Incidence rate, renal event” value (males, at 18 months) was 0.43 per patient·year. For the same molecule, the “Median time to first CCO” value (migalastat exposure (0-4.8 years)) was 1.17 years.

B1: ERT: enzyme replacement therapy: infusion of purified α-Gal A, e.g. agalsidase alfa (Replagal) or agalsidase beta (Fabrazyme) (protein, UniProt P06280 32-429, looked up)
Alpha-galactosidase A: LDNGLARTPTMGWLHWERFMCNLDCQEEPDSCISEKLFMEMAELMVSEGWKDAGYEYLCIDDCWMAPQRDSEGRLQADPQRFPHGIRQLANYVHSKGLKLGIYADVGNKTCAGFPGSFGYYDIDAQTFADWGVDLLKFDGCYCDSLENLADGYKHMSLALNRTGRSIVYSCEWPLYMWPFQKPNYTEIRQYCNHWRNFADIDDSWKSIKSILDWTSFNQERIVDVAGPGGWNDPDMLVIGNFGLSWNQQVTQMALWAIMAAPLFMSNDLRHISPQAKALLQDKDVIAINQDPLGKQGYQLRQGDNFEVWERPLSGLAWAVAMINRQEIGGPRSYTIAVASLGKGVACNPACFITQLLPVKRKLGFYEWTSRLRSHINPTGTVLLQLENTMQMSLKDLL
For B1, the “Incidence rate … (CCOs)” value (first 18 months of treatment) was 0.85 per patient·year, the “Median time to first composite clinical outcome” value (females, 0-18 months) was 0.35 Years and the “Incidence rate, cardiac event” value (females, at 18 months) was 0.42 per patient·year. The “Incidence rate, cerebrovascular event” value (females, at 18 months) was 0 per patient·year, the “Incidence rate, composite clinical outcome” value (females, at 18 months) was 0.98 per patient·year and the “Incidence rate, death” value (females, at 18 months) was 0 per patient·year. The “Incidence rate, renal event” value (females, at 18 months) was 0.56 per patient·year, the “Median time to first composite clinical outcome” value (males, 0-18 months) was 0.25 Years and the “Incidence rate, cardiac event” value (males, at 18 months) was 0 per patient·year. The “Incidence rate, cerebrovascular event” value (males, at 18 months) was 0.10 per patient·year, the “Incidence rate, composite clinical outcome” value (males, at 18 months) was 0.68 per patient·year and the “Incidence rate, death” value (males, at 18 months) was 0 per patient·year. For the same molecule, the “Incidence rate, renal event” value (males, at 18 months) was 0.58 per patient·year and the “Median time to first CCO” value (ERT exposure (0-18 months)) was 0.25 years.
